From US20190105367A1, “ANTIMICROBIAL 4-OXOQUINOLIZINES” (Emergent Product Development Gaithersburg Inc., priority 2011, published 2019)
In brackets after ≈: the same amount, converted by molar mass. Read-outs that look alike come from different tables or passages of the source. Marks after values point to notes of the source that are not given here.

Assays:
B. thailandensis = format: cell-based, Burkholderia thailandensis; details: for Dilutions improvement shift on B. thailandensis MIC90 (between pH 7 and pH 5): pH 7 vs pH 5
A. baumannii J2 = experiment: Preliminary MBC without and with sub-inhibitory polymyxin B (Example 4); format: cell-based, Acinetobacter baumannii; details: preliminary MBC; for MBC without PB: without polymyxin B
[1] = system: Acinetobacter sp. (H064200250); experiment: as above; format: cell-based; details: for MBC +[…] PB / MBC without PB: Acinetobacter spp. H064200250; for MBC without PB: without polymyxin B
Protocol: The plates were incubated for 18-20 hours at 37° C. The MBC was read as the lowest concentration at which colony growth was ca. 90% less than the positive control (i.e. usually where single colonies or no colonies were observed).

A. baumannii A329 = experiment: MIC without and with sub-inhibitory polymyxin B (Example 4); format: cell-based, Acinetobacter baumannii
A. baumannii A489 = experiment: Preliminary MBC without and with sub-inhibitory polymyxin B (Example 4); format: cell-based, Acinetobacter baumannii; details: preliminary MBC; for MBC without PB: without polymyxin B
E. faecalis 29212 = experiment: MIC, standard panel of Gram-positive and Gram-negative strains (Example 2); format: cell-based, Enterococcus faecalis; details: Enterococcus faecalis, 29212; read-out: MIC E. faecalis 29212
A. baumanii 19606 = experiment: as above; format: cell-based; details: Acinetobacter baumannii
S. aureus SMITH = experiment: MIC, panel of quinolone-resistant strains (Example 2); format: cell-based; details: Staphylococcus aureus; CIP R; read-out: MIC S. aureus SMITH
S. pneumoniae 49619 = experiment: as above; format: cell-based, Streptococcus pneumoniae; details: Streptococcus pneumoniae, 49619; LEV S; read-out: MIC S. pneumoniae 49619
Cytotoxicity (Example 7) = format: cell-based; details: human, HEPG2 V1 cells
Protocol: The 4-oxoquinolizine compounds of the invention preferably have a low cytotoxicity against human cells. […].
Cytotoxicity was determined for the instant 4-oxoquinolizine compounds which show low cytotoxicity. (see Table 17 following). […]

[2] = A. baumannii J2, +[…] PB, 2nd experiment
[3] = A. baumannii J2, +[…] polymyxin B, 1st experiment
[4] = A. baumannii J2, without PB, 2nd experiment
[5] = A. baumannii J2, 1st experiment
[6] = Acinetobacter spp. H064200250 (OXA51), +[…] PB, preliminary MBC, 2nd experiment
[7] = Acinetobacter spp. H064200250 (OXA51), without PB, preliminary MBC, 2nd experiment
[8] = +[…] polymyxin B, preliminary MBC, 1st experiment
[9] = preliminary MBC, 1st experiment
[10] = A. baumannii A329, +0.06 μg/ml PB, 2nd experiment
[11] = A. baumannii A489, +[…] PB, 2nd experiment
[12] = A. baumannii A489, +[…] polymyxin B, 1st experiment
[13] = A. baumannii A489, without PB, 2nd experiment
[14] = A. baumannii A489, 1st experiment
[15] = Acinetobacter baumannii, J2, A. baumannii J2, +[…] PB, 2nd experiment, read-out: MBC
[16] = Acinetobacter baumannii, J2, read-out: MBC +[…] PB, A. baumannii J2, +[…] polymyxin B, 1st experiment
[17] = Acinetobacter, Acinetobacter spp. H064200250 (OXA51), +[…] PB, preliminary MBC, 2nd experiment, read-out: MBC
[18] = Acinetobacter, read-out: MBC +[…] PB, Acinetobacter spp. H064200250, +[…] polymyxin B, preliminary MBC, 1st experiment
[19] = Acinetobacter baumannii, A329, A. baumannii A329, +0.06 μg/ml PB, 2nd experiment, read-out: MIC
[20] = Acinetobacter baumannii, A489, A. baumannii A489, +[…] PB, 2nd experiment, read-out: MBC
[21] = Acinetobacter baumannii, A489, read-out: MBC +[…] PB, A. baumannii A489, +[…] polymyxin B, 1st experiment

Row | Compound | Dilutions improvement shift on B. thailandensis MIC90 (between pH 7 and pH 5) (B. thailandensis) | MBC (A. baumannii J2; [2]) [µg/mL] | MBC +[…] PB (A. baumannii J2; [3]) [µg/mL] | MBC (A. baumannii J2; [4]) [µg/mL] | MBC without PB (A. baumannii J2; [5]) [µg/mL] | MBC [1, 6] [µg/mL] | MBC [1, 7] [µg/mL] | MBC +[…] PB [1, 8] | MBC without PB [1, 9] [µg/mL] | MIC without PB/MIC + PB (A. baumannii A329; [10]) | MBC (A. baumannii A489; [11]) [µg/mL] | MBC +[…] PB (A. baumannii A489; [12]) [µg/mL] | MBC (A. baumannii A489; [13]) [µg/mL] | MBC without PB (A. baumannii A489; [14]) [µg/mL] | IC50 (Cytotoxicity (Example 7)) [µM] | MBC (A. baumannii J2; [15]) [µg/mL] | MBC (A. baumannii J2; [16]) [µg/mL] | MBC [1, 18] [µg/mL] | MBC (A. baumannii A489; [20]) [µg/mL] | MBC (A. baumannii A489; [21]) [µg/mL] | further results
1 | 8-[(3S)-3-aminocyclopentyl]-1- cyclopropyl-7-fluoro-9-methyl- 4-oxo-quinolizine-3-carboxylic acid [Compound 10, reference compound] | Yes, 2x | 0.25 | 1 | 2 | 1 | 0.5 | 1 | 1 µg/mL | 0.5 | 2 | 1 | 1.00 | 1 | 1 | – | – | – | – | – | – | MIC90 B. thailandensis (B. thailandensis): <0.048 µg/mL; MIC (A. baumannii A329; [10]): 1 µg/mL; MIC read with alamar blue (A. baumannii A329; A. baumannii A329, +0.06 μg/ml PB, value in parentheses, 2nd experiment): 2 µg/mL; MIC (A. baumannii A329; A. baumannii A329, without PB, 2nd experiment): 2 µg/mL; MIC without PB (A. baumannii A329; A. baumannii A329, without polymyxin B, 1st experiment): 8 µg/mL
2 | Cc1c(-c2ccc(N)cc2)c(F)cn2c(=O)c(C(=O)O)cc(C3CC3)c12 [Compound 7, 8-(4-amino-phenyl)-1-cyclopropyl-7-fluoro-9-methyl-4-oxo-quinolizine-3-carboxylic acid] | Yes, 4x | – | – | – | – | – | – | – | – | 8 | – | – | – | – | 150 | ≤ 0.03 | ≤ 0.03 | 0.25 (≈ 0.709 µM) | ≤ 0.03 | ≤ 0.03 | MIC (E. faecalis 29212): 0.06 µg/mL (≈ 0.17 µM); MIC (A. baumanii 19606): 0.5 µg/mL (≈ 1.42 µM); MIC (S. aureus SMITH): 0.25 µg/mL (≈ 0.709 µM); MIC (S. pneumoniae 49619): 0.25 µg/mL (≈ 0.709 µM); MBC [1, 17]: ≤ 0.03 µg/mL; MIC (A. baumannii A329; [19]): 2 µg/mL (≈ 5.68 µM)
3 | C[C@@H](O)[C@H]1C(=O)N2C(C(=O)O)=C(S[C@@H]3CN[C@H](C(=O)N(C)C)C3)[C@H](C)[C@H]12 [Meropenem] | – | – | – | – | – | – | – | – | – | – | – | – | – | – | – | ≤ 0.125 | 1 (≈ 2.61 µM) | 1 (≈ 2.61 µM) | ≤ 0.125 | 0.5 (≈ 1.3 µM) | MBC [1, 17]: 0.25 µg/mL (≈ 0.652 µM)
4 | Imipenem/cilastatin | – | ≤0.125 | ≤0.125 | 8 | 4 | 0.5 | 8 | 2 (0.5)* μg/ml | 16 | – | 0.25 | 2 | 64 | 64 | – | – | – | – | – | – | –
5 | Cc1c(-c2ccc(N)c(F)c2)ccn2c(=O)c(C(=O)O)cc(C3CC3)c12 [Compound 1, 8-(3-fluoro-4-amino-phenyl)-1-cyclopropyl-9-methyl-4-oxo-quinolizine-3-carboxylic acid] | Yes, 4x | – | – | – | – | – | – | – | – | 8 | – | – | – | – | 500 | – | ≤ 0.03 | 0.25 (≈ 0.709 µM) | ≤ 0.03 | ≤ 0.03 | MBC ([1]; Acinetobacter): ≤ 0.03 µg/mL; MIC (A. baumannii A329; [19]): 2 µg/mL (≈ 5.68 µM)
